In series [1] the target is opioid receptor subtype δ (Homo sapiens, UniProt P41143). Kind of series: Competitive radioligand binding ([3H]Diprenorphine), opioid receptor subtype δ. The settings on record: for inhibition at 10 µM: read-out: Inhibition percentage of competitive binding, δ. As to the method:
(§1) Competitive Binding Between the Compounds and Opioid Receptor Subtypes μ, δ, κ
(§2) The respective test compounds were added to the sample tube (final concentration of 10^−5M), incubated at 37° C. for 30 min and placed in ice bath to terminate the reaction. The reaction mixture was filtered through GF/C(Whatman) glass fiber filter by vacuum filtration on a Millipore sample collector. The filter was washed three times with 50 mM Tris-HCl (pH7.4), each with 4 ml; dried and transferred into a 0.5 ml Eppendorf tube, in which 0.5 ml lipophilic scintillation fluid was added. Radioactivity was detected by a LS6500 scintillation counter. Each concentration had three duplicate test tubes and each separate test was repeated 3 to 4 times.
(§3) Specific binding CMP value for each sample tube=overall binding CPM value for each sample tube-CPM value of non-specific binding tube. [Inhibition percentage of competitive binding between the test compound and different opioid receptor subtypes (%)=(100%−specific binding (CPM value) of sample tube/specific binding (CPM value) of solvent group×100%)]
Average was taken for each test drug from three duplicate tubes; each test was repeated two or more times. Data were presented as mean±SE and statistical comparison was made by ANOVA.

Series [2] concerns Kunming mice. Nature of the series: Hot-plate test in mice. It is filed as in vivo. The following applies: 1 h post dose, hot plate 55° C. How it is done: Kunming mice, SPF KM mice were purchased from […] SLAC LABORATORY ANIMAL CO. LTD and kept in normal environment.
(§4) 2. Modes of Administration
The compounds were dissolved in water for injection at a concentration of 4 mg/ml, 2 mg/ml and 1 mg/ml and were given subcutaneously to animals.
(§5) Three different doses (10, 20, and 40 mg/kg) were administered to the test groups.
Morphine was used as a positive control and hot plate test was used.
30-40 mice (half male and half female) weighing 18-23 g were used. First, each mouse was placed on a hot plat at 55° C. to determine basic pain threshold for 2-3 times. Those animals with basic pain threshold of 5-30 s were qualified, unqualified mice were not used. 30 qualified mice were divided into five groups, including negative control group, positive control group, low-dose group, medium-dose group and high-dose group:
Mice in test groups received test sample solution (10 mg/kg, 20 mg/kg, 40 mg/kg) via subcutaneous injection in the neck. Positive control group received subcutaneous injection of morphine (2 mg/kg). One hour later, pain threshold values were determined for mice in each group as post-drug pain threshold. Percentage increase in pain threshold was calculated according to the following equation: […]

The next series can be described thus: in vivo. The following applies: mouse, po, mice. The text has this:
Studies of Acute Toxicity of the Compound I-1 and I-20
For statistics of 1-20, Bliss method was used (“Experimental Design and Statistical Basis for Drug Evaluation”, Changxiao Liu, Ruiyuan Su, first edition, Military Medical Science Press, 1993, 80-90).

Series [3] relates to Kunming mice. Kind of series: Acetic acid-induced abdominal writhing test in mice. It is filed as in vivo. The settings on record: 1 h before 0.7% acetic acid i.p. As to the method:
Acetic Acid-Induced Abdominal Writhing Test in Mice
Kunming mice, SPF KM mice purchased from […] SLAC LABORATORY ANIMAL CO. LTD and kept in normal environment.
as §4
The compounds were dissolved in water for injection at a concentration of 4 mg/ml, 2 mg/ml and 1 mg/ml and were given intragastrically to animals.
as §5
Aspirin was used as a positive control and acetic acid writhing test was used.
30 mice (half male and half female) weighing 18-23 g were divided into five groups, including negative control group, positive control group, low dose group, medium dose group and high dose group:
Mice in test group received test drug (10 mg/kg, 20 mg/kg, 40 mg/kg) via intragastric administration. Negative control group received physiological saline (20 ml/kg) via oral administration. Positive control group received aspirin (200 mg/kg) via oral administration. One hour later, each group received 0.7% acetic acid 10 ml/kg intraperitoneally. Five minutes later, the number of writhes was counted within the subsequent 15 min period; inhibition percentage of writhing response in each test group was calculated by the following equation: […]
(An intraperitoneal irritant provokes the stretching counted in writhing tests.)

Series [4] addresses opioid receptor subtype κ (Homo sapiens, UniProt P41145). Nature of the series: biochemical. It is filed as binding. The settings on record: for inhibition at 10 µM: test concentration 10^−5 mol/L, [3H]Diprenorphine 0.4 nM, mean±SE, read-out: Inhibition percentage of competitive binding, κ. As to the method:
as §1, §2, §3
(§6) Average was taken for each test drug from three duplicate tubes; each test was repeated two or more times.

Series [5] concerns the target opioid receptor subtype μ (Homo sapiens, UniProt P35372). Kind of series: biochemical. It is filed as binding. The settings on record: for inhibition at 10 µM: test concentration 10^−5 mol/L, [3H]Diprenorphine 0.4 nM, mean±SE, read-out: Inhibition percentage of competitive binding, μ. How it is done:
as §1, §2, §3, §6

Series [6] has as its system Salmonella typhimurium histidine auxotroph mutants TA97, TA98, TA100 and TA102. It is filed as cell-based. How it is done:
Bacterial Reverse Mutation Test on I-20
Bacterial reverse mutation test on compound I-20 was performed on Salmonella typhimurium histidine auxotroph mutants TA97, TA98, TA100 and TA102 (purchased from MolTox company) using conventional procedures of Ames test.
Observation period: colony counting was done 48 hours after cultivation at 37° C.
Drug solutions with different concentrations were prepared with double distilled water, and the doses were 5, 50, 500, 1000, 5000 μg/plate.
Direct effect of the test drug in the absence of metabolic activity was determined by standard plate incorporation assay. The composition of the test top layer was: 2.0 ml top layer, 0.1 ml drug solution, 0.1 ml bacteria solution and 0.5 ml phosphate buffer.
Pre-incubation was used in the determination of the drug's mutagenic effect in the presence of metabolic activity. The composition of the test top layer is: 2.0 ml top layer, 0.1 ml drug solution, 0.1 ml bacteria solution and 0.5 ml S9 mix.
The resulting drug solution, bacterial solution and S9 mix were first incubated at 35° C. for 30 min while shaking, and then tested according to standard plate incorporation assay. Each dose was tested in three plates, each mutant was tested in the absence or presence of metabolic activity (−S9 or +S9) and repeated twice, the number of revertant colonies was calculated as x±SD.
Results: the test included two parts, −S9 and +S9. […] Other doses had no bacteristatic effect to all strains, and the background growth was good.

The nature of series [7]: Animal model study of compound I-20 (summary statements).

This is an account of results in patent US8778948B2, “Substituted phenylpiperazinyl aralkylalcohol derivatives, pharmaceutical compositions containing such derivatives and uses thereof” (priority 2008, dated 2014).

Molecules are shown by their SMILES. “Also recorded” adds a separate entry of the source. Marks after values point to notes of the source that are not given here.

The term inhibition denotes the share of the control response that was lost under treatment. In general, LD50 refers to the dose at which mortality reaches 50%. Read a high LD50 as lower toxicity.

opioid receptor subtype κ, sequence (P41145 whole entry): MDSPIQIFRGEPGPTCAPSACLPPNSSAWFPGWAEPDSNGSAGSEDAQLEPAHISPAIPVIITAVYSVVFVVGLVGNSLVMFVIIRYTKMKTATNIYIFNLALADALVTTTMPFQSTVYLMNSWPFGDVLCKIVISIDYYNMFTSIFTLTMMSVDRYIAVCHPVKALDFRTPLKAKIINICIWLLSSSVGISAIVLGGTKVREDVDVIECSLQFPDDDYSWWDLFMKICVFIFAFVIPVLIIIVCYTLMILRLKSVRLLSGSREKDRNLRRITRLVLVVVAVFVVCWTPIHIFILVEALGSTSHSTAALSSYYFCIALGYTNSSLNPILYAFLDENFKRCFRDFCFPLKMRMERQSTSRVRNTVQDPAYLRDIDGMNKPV
opioid receptor subtype δ, sequence (P41143 whole entry): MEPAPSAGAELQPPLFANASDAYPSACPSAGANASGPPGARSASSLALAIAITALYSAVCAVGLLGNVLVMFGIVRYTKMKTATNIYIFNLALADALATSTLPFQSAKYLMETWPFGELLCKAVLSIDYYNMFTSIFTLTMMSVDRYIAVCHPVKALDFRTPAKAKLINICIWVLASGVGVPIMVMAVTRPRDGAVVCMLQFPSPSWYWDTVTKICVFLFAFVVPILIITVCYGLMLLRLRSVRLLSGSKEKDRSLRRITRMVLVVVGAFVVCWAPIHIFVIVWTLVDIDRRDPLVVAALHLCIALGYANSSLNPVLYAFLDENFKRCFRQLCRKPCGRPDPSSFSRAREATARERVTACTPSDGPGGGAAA
opioid receptor subtype μ, sequence (P35372 whole entry): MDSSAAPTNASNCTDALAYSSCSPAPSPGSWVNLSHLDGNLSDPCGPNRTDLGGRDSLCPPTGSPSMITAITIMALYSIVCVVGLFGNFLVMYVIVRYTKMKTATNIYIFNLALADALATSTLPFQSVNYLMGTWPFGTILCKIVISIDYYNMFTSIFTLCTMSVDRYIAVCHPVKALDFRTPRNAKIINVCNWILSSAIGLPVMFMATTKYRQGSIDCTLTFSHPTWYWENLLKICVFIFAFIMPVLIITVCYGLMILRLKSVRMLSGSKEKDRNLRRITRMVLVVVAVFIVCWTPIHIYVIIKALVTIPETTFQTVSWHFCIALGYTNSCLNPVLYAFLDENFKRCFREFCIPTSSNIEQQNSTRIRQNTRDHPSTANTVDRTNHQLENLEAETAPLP

Take `C[C@@H]([C@H](O)c1ccccc1)N1CCN(c2cccc(C(F)(F)F)c2)CC1` (racemic) [Compound I-1, (1RS,2SR)-1-phenyl-2-(4-(3-trifluoromethylphenyl)piperazinyl)-propan-1-ol]: the inhibition at 10 µM worked out at 0% in series [1], 2.7 ± 0.9% in series [4] and 22.7 ± 2.2% in series [5]. For the same compound, the “Percentage increase in pain threshold” value with Kunming mice [2] (10 mg/kg S.c.) was 4.53%; with Kunming mice [2] (20 mg/kg S.c.), 11.7%; with Kunming mice [2] (40 mg/kg S.c.), 89.62 ** %. The compound further yielded an LD50 in “in vivo” greater than 2000 mg/kg. For the same compound, the “Inhibition percentage of writhing response” value with Kunming mice [3] (10 mg/kg Ig) is given as 64.38 * %; in the series on Kunming mice [3] (20 mg/kg Ig) it was 68.13 * %; with Kunming mice [3] (40 mg/kg Ig), 83.13 ** %.

In the case of `COc1ccccc1N1CCN([C@H](C)[C@H](O)c2ccccc2)CC1` (racemic) [Compound I-20, (1RS,2RS)-1-phenyl-2-(4-(2-methoxyphenyl)piperazinyl)-propan-1-ol], the “Affinity to opioid receptor subtype δ (in words)” value in series [1] was “no obvious affinity”. The inhibition at 10 µM in series [1] stood at 0%; in series [4], 8.9 ± 0.2%; in series [5] it was 13.4 ± 2.1%. Moreover, the Ames test result in series [6] (TA97, TA98, TA100, TA102, −S9 and +S9, 5-5000 μg/plate) is on record as “negative”. For the same compound, in series [6] (TA98 in −S9 test system and TA97 in +S9 test system), the “Bacteristatic effect on test strains” value is “bacteristatic effects”. The “Increase in the number of revertant colonies” value in series [6] (−S9 and +S9, 5, 50, 500, 1000, 5000 μg/plate) was “None of the tested dose resulted in significant increase”. Further, the “Percentage increase in pain threshold” value in the series on Kunming mice [2] (10 mg/kg S.c.) is reported as 63.29 * %; in the series on Kunming mice [2] (20 mg/kg S.c.), 80.88 * %; with Kunming mice [2] (40 mg/kg S.c.), 186.25 ** %. The compound also yielded an LD50 in “in vivo” of 674 mg/kg. For the same compound, the “Analgesic effect (in words)” value in series [7] (animal model study) is given as “obvious analgesic effect”. Besides, in series [7] (in vivo), the “Potential for drug dependence” value is recorded as “low potential for drug dependence”. Moreover, in series [7] (multiple applications), the “Drug resistance after multiple applications” value is on record as “No drug resistance is observed”. The “Absorption with oral administration (in words)” value in series [7] (oral administration) is listed as “well absorbed; also recorded: good absorption”. Also, the “Inhibition percentage of writhing response” value with Kunming mice [3] (10 mg/kg Ig) is given as 46.61%; in the series with Kunming mice [3] (20 mg/kg Ig), 72.03 * %; in the series on Kunming mice [3] (40 mg/kg Ig), 64.41%. Further, the “Affinity to opioid receptor subtype κ (in words)” value in series [4] is “no obvious affinity”. In series [5], the “Affinity to opioid receptor subtype μ (in words)” value is listed as “no obvious affinity”.
